Data taken from ChEMBL document CHEMBL5352392, “Design, synthesis, and biological evaluation of novel dual inhibitors of heat shock protein 90/mammalian target of rapamycin (Hsp90/mTOR) against bladder cancer cells” (Eur J Med Chem, 2022).

Columns and labels:
[1] = target: Serine/threonine-protein kinase mTOR (Homo sapiens, UniProt P42345); assay: Inhibition of mTOR (unknown origin) at 100 nM by kinase profiling assay relative to control
[2] = tested on: J82; assay: Antiproliferative activity against human J82 cells assessed as inhibition of cell proliferation at 1 uM by CCK8 assay relative to control; assay type: functional
[3] = tested on: T-24; assay: Antiproliferative activity against human T24 cells assessed as inhibition of cell proliferation at 1 uM by CCK8 assay relative to control; assay type: functional
[4] = tested on: SW780; assay: Antiproliferative activity against human SW780 cells assessed as inhibition of cell proliferation at 1 uM by CCK8 assay relative to control; assay type: functional
[5] = target: Heat shock protein HSP90 (Homo sapiens, UniProt P07900+P08238); conditions: dose 100.0 nM
Description: Inhibition of Hsp90 (unknown origin) at 100 nM by TR-FRET assay relative to control

[6] = tested on: J82; assay: Antiproliferative activity against human J82 cells assessed as inhibition of cell proliferation by CCK8 assay; assay type: functional, cell-based
[7] = tested on: T-24; assay: Antiproliferative activity against human T24 cells assessed as inhibition of cell proliferation by CCK8 assay; assay type: functional, cell-based
[8] = tested on: SW780; assay: Antiproliferative activity against human SW780 cells assessed as inhibition of cell proliferation by CCK8 assay; assay type: functional, cell-based
[9] = target: Phosphatidylinositol 4,5-bisphosphate 3-kinase catalytic subunit alpha isoform (Homo sapiens, UniProt P42336); assay: Inhibition of PI3Kalpha (unknown origin) by kinase profiling assay
Chain of Phosphatidylinositol 4,5-bisphosphate 3-kinase catalytic subunit alpha isoform (P42336 whole entry, canonical isoform): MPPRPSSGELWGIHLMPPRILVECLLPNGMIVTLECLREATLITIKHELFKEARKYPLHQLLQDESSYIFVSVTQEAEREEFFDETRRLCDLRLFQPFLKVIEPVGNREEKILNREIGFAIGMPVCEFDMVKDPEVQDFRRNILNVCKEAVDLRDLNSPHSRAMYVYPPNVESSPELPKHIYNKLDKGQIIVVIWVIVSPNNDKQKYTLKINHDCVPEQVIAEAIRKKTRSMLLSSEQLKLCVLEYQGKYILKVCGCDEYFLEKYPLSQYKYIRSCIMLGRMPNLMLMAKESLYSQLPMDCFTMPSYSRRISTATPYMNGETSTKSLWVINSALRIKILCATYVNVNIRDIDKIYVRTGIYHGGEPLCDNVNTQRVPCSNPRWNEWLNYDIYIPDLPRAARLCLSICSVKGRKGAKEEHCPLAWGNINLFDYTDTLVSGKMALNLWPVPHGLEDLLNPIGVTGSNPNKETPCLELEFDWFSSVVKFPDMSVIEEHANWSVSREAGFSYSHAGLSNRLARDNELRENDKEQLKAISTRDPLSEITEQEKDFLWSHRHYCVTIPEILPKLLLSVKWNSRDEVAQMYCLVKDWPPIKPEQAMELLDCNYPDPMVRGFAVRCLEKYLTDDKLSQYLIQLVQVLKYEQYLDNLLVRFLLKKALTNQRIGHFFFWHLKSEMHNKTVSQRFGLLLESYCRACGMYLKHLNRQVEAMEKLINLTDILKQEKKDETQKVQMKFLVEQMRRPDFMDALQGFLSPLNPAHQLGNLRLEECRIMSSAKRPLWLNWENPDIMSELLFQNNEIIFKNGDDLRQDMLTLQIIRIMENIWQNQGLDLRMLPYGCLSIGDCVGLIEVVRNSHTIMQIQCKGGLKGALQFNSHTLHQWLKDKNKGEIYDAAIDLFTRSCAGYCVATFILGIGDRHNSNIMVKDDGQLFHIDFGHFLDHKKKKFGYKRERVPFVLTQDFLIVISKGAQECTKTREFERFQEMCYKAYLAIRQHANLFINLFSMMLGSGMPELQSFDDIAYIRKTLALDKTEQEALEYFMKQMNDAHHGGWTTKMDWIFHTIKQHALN

Compound | inhibition [1] | inhibition at 1 µM [2] | inhibition at 1 µM [3] | inhibition at 1 µM [4] | inhibition [5] | IC50 [6] | IC50 [7] | IC50 [8] | IC50 [9]
CC(C)c1cc(C(=O)N2CCc3c(sc4nc(N5CCOCC5)nc(NC5CCOCC5)c34)C2)c(O)cc1O | 33.7% | 37.1% | 29.5% | 38.9% | 38.2% | – | – | – | –
CC(C)c1cc(C(=O)N2CCc3c(sc4nc(-c5ccc(NC(=O)N6CCOCC6)cc5)nc(N5CCOCC5)c34)C2)c(O)cc1O | 53.7% | 67.2% | 44.8% | 49.8% | 58.4% | – | – | – | –
CC(C)c1cc(C(=O)N2CCc3c(sc4nc(N5CCOCC5)nc(N5CCOC(F)(F)C5)c34)C2)c(O)cc1O | 44.1% | 41.4% | 42.1% | 37.1% | 27.5% | – | – | – | –
CC(C)c1cc(C(=O)N2CCc3c(sc4nc(N5CCOC(F)(F)C5)nc(N5CCOCC5)c34)C2)c(O)cc1O | 57.6% | 62.7% | 63.8% | 58.8% | 53.8% | – | – | – | –
CC(C)c1cc(C(=O)N2CCc3c(sc4nc(NC5CCOCC5)nc(N5CCOCC5)c34)C2)c(O)cc1O | 57.5% | 57.6% | 49.7% | 61% | 58% | – | – | – | –
CC(C)c1cc(C(=O)N2CCc3c(sc4nc(N5CCOCC5)nc(NCCN5CCOCC5)c34)C2)c(O)cc1O | 39.1% | 58.7% | 50.2% | 75% | 81.5% | – | – | – | –
CC(C)c1cc(C(=O)N2CCc3c(sc4nc(-c5ccc(NC(=O)Nc6cccc(F)c6)cc5)nc(N5CCOCC5)c34)C2)c(O)cc1O | 47.7% | 58.8% | 63.8% | 59.9% | 64.9% | – | – | – | –
CN1CCc2c(sc3nc(-c4ccncc4)nc(N4CCOCC4)c23)C1 | 44.3% | 37.6% | 30.5% | 26.3% | – | – | – | – | –
CC(C)c1cc(C(=O)N2CCc3c(sc4nc(N5CCOCC5)nc(N5CCC(N(C)C)CC5)c34)C2)c(O)cc1O | 76.7% | 52.7% | 55.8% | 64.5% | 45.5% | – | – | – | –
CC(C)c1cc(C(=O)N2CCc3c(sc4nc(N5CCCCC5)nc(N5CCOCC5)c34)C2)c(O)cc1O | 55.7% | 55% | 43.5% | 49.5% | 46.6% | – | – | – | –
CC(C)c1cc(C(=O)N2CCc3c(sc4nc(N5CCOCC5)nc(N5CCCC5)c34)C2)c(O)cc1O | 40.9% | 47.9% | 57.7% | 46% | 53% | – | – | – | –
CC(C)c1cc(C(=O)N2CCc3c(sc4nc(-c5ccc(N)cc5)nc(N5CCOCC5)c34)C2)c(O)cc1O | 67.4% | 64.4% | 70.6% | 66.2% | 57.8% | – | – | – | –
CC(C)c1cc(C(=O)N2CCc3c(sc4nc(N5CCOCC5)nc(N5CCOCC5)c34)C2)c(O)cc1O | 68.8% | 65% | 44.8% | 62.7% | 42.4% | – | – | – | –
CCNC(=O)Nc1ccc(-c2nc(N3CCOCC3)c3c4c(sc3n2)CN(C(=O)c2cc(C(C)C)c(O)cc2O)CC4)cc1 | 68.6% | 67.6% | 57.9% | 70.2% | 62.2% | – | – | – | –
CC(C)c1cc(C(=O)N2CCc3c(sc4nc(N5CCCC5)nc(N5CCOCC5)c34)C2)c(O)cc1O | 52.3% | 43.1% | 54% | 42.1% | 46.6% | – | – | – | –
CC(C)c1cc(C(=O)N2CCc3c(sc4nc(-c5ccc(NC(=O)Nc6ccc(F)cc6)cc5)nc(N5CCOCC5)c34)C2)c(O)cc1O | 77.4% | 57.8% | 76.8% | 69.8% | 63.2% | – | – | – | –
CC(C)c1cc(C(=O)N2CCc3c(sc4nc(-c5ccc(NC(=O)Nc6ccccc6)cc5)nc(N5CCOCC5)c34)C2)c(O)cc1O | 74.5% | 79.7% | 60.1% | 66.2% | 59.2% | – | – | – | –
CCNC(=O)c1noc(-c2cc(C(C)C)c(O)cc2O)c1-c1ccc(CN2CCOCC2)cc1 [LUMINESPIB] | – | 35.1% | 38.8% | 46.4% | – | 5.2 µM | 4.93 µM | 3.95 µM | –
CCNC(=O)N(C(=O)NCC)c1ccc(-c2nc(N3CCOCC3)c3c4c(sc3n2)CN(C(=O)c2cc(C(C)C)c(O)cc2O)CC4)cc1 | 53.5% | 53.4% | 61% | 63.2% | 55.7% | – | – | – | –

Compound | inhibition [1] | inhibition at 1 µM [2] | inhibition at 1 µM [3] | inhibition at 1 µM [4] | inhibition [5] | IC50 [6] | IC50 [7] | IC50 [8] | IC50 [9]
COc1ccc(-c2ccc3c(N4CCOC[C@@H]4C)nc(N4CCOC[C@@H]4C)nc3n2)cc1CO [AZD-8055] | 93.3% | 72.4% | 73.3% | 79.6% | – | 0.65 µM | 0.54 µM | 0.81 µM | 4.45 µM
CC(C)c1cc(C(=O)N2CCc3c(sc4nc(N5CCOCC5)nc(N5CCN(C)CC5)c34)C2)c(O)cc1O | 32.7% | 37.2% | 40.9% | 44.9% | 40.8% | – | – | – | –
CC(C)c1cc(C(=O)N2CCc3c(sc4nc(-c5ccc(NC(=O)Nc6ccccc6Cl)cc5)nc(N5CCOCC5)c34)C2)c(O)cc1O | 76.8% | 72.4% | 73.8% | 88.8% | 64.5% | – | – | – | –
CC(C)c1cc(C(=O)N2CCc3c(sc4nc(-c5ccc(NC(=O)Nc6ccc(Cl)cc6)cc5)nc(N5CCOCC5)c34)C2)c(O)cc1O | 77.3% | 83.9% | 86% | 83.2% | 66.5% | – | – | – | –
Cc1ccccc1NC(=O)Nc1ccc(-c2nc(N3CCOCC3)c3c4c(sc3n2)CN(C(=O)c2cc(C(C)C)c(O)cc2O)CC4)cc1 | 68.2% | 66.2% | 78% | 53.7% | 62.6% | – | – | – | –
CC(C)c1cc(C(=O)N2CCc3c(sc4nc(-c5ccc(NC(=O)N6CCCCC6)cc5)nc(N5CCOCC5)c34)C2)c(O)cc1O | 50.4% | 54.9% | 41.6% | 45.1% | 46.7% | – | – | – | –
CC(C)c1cc(C(=O)N2CCc3c(sc4nc(-c5ccncc5)nc(N5CCOCC5)c34)C2)c(O)cc1O | 49.8% | 37.8% | 47.1% | 39.5% | 35.4% | – | – | – | –
CC(C)c1cc(C(=O)N2CCc3c(sc4nc(N5CCOCC5)nc(N5CCC(F)(F)CC5)c34)C2)c(O)cc1O | 45.1% | 49.8% | 50.3% | 52.1% | 43.6% | – | – | – | –
Cc1ccc(NC(=O)Nc2ccc(-c3nc(N4CCOCC4)c4c5c(sc4n3)CN(C(=O)c3cc(C(C)C)c(O)cc3O)CC5)cc2)cc1 | 71.8% | 65.8% | 67.8% | 74.5% | 61.6% | – | – | – | –
Cc1cccc(NC(=O)Nc2ccc(-c3nc(N4CCOCC4)c4c5c(sc4n3)CN(C(=O)c3cc(C(C)C)c(O)cc3O)CC5)cc2)c1 | 74.7% | 60.5% | 84.1% | 62.5% | 64.6% | – | – | – | –
CC(C)c1cc(C(=O)N2CCc3c(sc4nc(NCCN5CCOCC5)nc(N5CCOCC5)c34)C2)c(O)cc1O | 68.2% | 72.2% | 78% | 55.2% | 62.1% | – | – | – | –
CC(C)c1cc(C(=O)N2CCc3c(sc4nc(N5CCC(F)(F)CC5)nc(N5CCOCC5)c34)C2)c(O)cc1O | 41.3% | 45% | 34.4% | 37.9% | 36.3% | – | – | – | –
CC(C)c1cc(C(=O)N2CCc3c(sc4nc(-c5ccc(NC(=O)Nc6cc(F)cc(F)c6)cc5)nc(N5CCOCC5)c34)C2)c(O)cc1O | 70.5% | 78% | 61.3% | 53.5% | 58.1% | – | – | – | –
CC(C)c1cc(C(=O)N2CCc3c(sc4nc(-c5ccc(NC(=O)Nc6ccc(C(F)(F)F)cc6)cc5)nc(N5CCOCC5)c34)C2)c(O)cc1O | 66.4% | 69% | 61.3% | 61.3% | 62.8% | – | – | – | –
CC(C)c1cc(C(=O)N2CCc3c(sc4nc(N5CCOCC5)nc(N5CCCCC5)c34)C2)c(O)cc1O | 56.6% | 55.4% | 57.1% | 47.6% | 54.9% | – | – | – | –
CN1CCc2c(sc3nc(-c4ccc(N)cc4)nc(N4CCOCC4)c23)C1 | 66.2% | 50.4% | 32.8% | 20.7% | – | – | – | – | –
CC(C)c1cc(C(=O)N2CCc3c(sc4nc(N5CCN(C)CC5)nc(N5CCOCC5)c34)C2)c(O)cc1O | 62.6% | 59.2% | 69.9% | 68% | 63.8% | – | – | – | –
CC(C)c1cc(C(=O)N2CCc3c(sc4nc(-c5ccc(NC(=O)Nc6ccccc6F)cc5)nc(N5CCOCC5)c34)C2)c(O)cc1O | 74.8% | 78.7% | 70.1% | 83.7% | 70% | – | – | – | –
